PMC5691054, “An unexpected protein interaction promotes drug resistance in leukemia” (Nature Communications, 2017)
“Also recorded” adds a separate entry of the source.

Experiments:
[1] = system: ABCC4 plasma membrane localization in HEK293 cells expressing MPP1 and GFP-ABCC4; assay: ABCC4 plasma membrane localization (confocal microscopy); format: cell-based, Human; conditions: in words; confocal microscopy
Experimental: Peptides containing or lacking the ABCC4-PDZ motif were fused with the cell penetrating HIV-TAT peptide. These peptides were tested for their effect on ABCC4 plasma membrane localization. HEK293 cells were transfected with MPP1 and GFP-ABCC4 and the ER protein, calreticulin. The plasma membrane was counter-stained with wheat-germ-agglutinin (WGA) labeled with Alexa647 after treatment with either ABCC4-PDZ or ABCC4ΔC peptide.
HEK293 cells were seeded on chambered coverglass slides (LAB-TEK) 48 h before transfection with plasmid DNA (250 ng) encoding pAc-GFP-ABCC4 or ABCC4ΔC and pCal plasmid encoding the ER resident protein calreticulin conjugated to RFP (Origene). Transfection was performed using Lipofectamine 2000 as per the manufacturer’s instructions. Immediately prior to visualizing cells, cells were counterstained with the plasma membrane marker wheat-germ agglutinin (WGA) conjugated to Alexa-647 (Invitrogen). All confocal microscopy images were acquired on a 3i Marianas system configured with an Yokagowa CSU-X spinning disk confocal microscope utilizing a ×63 Zeiss objective, using the 488 (GFP), 561 (RFP), and 660 (far red) laser lines.

MO7e cells [2] = assay: Cytarabine cytotoxicity in MO7e cells; format: cell-based, Human; conditions: in words
Experimental: MO7e cells were seeded at 1500 cells per well of a 96-well plate. Cells were then treated with Cytarabine at increasing concentrations ranging from 0.5 to 500 μM for 4 h in serum-free media. Cells were washed three times with PBS and replaced with fresh complete media for 68 h. Cell viability analysis was determined using CellTiter Glo. Where applicable, cells were treated with 10 nM Antimycin A. IC50 values were calculated using GraphPad Prism.

MPP1 = molecular target: T1, MPP1 (Homo sapiens, UniProt Q00013); assay: MPP1 protein expression (immunoblot); format: cell-based; conditions: Antimycin A treatment; Meg01 cells (Supplementary Fig. 6e), in words
T1 construct: incubated with various concentrations of full-length MPP1; His tag (N); S-tag (N); made in house; host or cells: E. coli
T1 sequence (Q00013 1-466): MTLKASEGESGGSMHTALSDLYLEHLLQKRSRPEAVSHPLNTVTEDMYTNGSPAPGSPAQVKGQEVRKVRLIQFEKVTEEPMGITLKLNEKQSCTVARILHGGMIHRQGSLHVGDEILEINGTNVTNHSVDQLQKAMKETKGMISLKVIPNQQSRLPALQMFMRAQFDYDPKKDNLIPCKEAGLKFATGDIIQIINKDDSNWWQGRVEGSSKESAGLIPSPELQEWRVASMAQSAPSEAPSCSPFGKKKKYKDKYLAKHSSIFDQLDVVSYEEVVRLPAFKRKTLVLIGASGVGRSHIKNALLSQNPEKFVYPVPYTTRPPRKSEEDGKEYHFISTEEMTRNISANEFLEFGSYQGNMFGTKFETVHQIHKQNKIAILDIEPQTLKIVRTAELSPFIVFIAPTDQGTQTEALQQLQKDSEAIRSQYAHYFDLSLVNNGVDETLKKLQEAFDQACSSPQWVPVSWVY
Text: Forty-eight hours after transfection, cells were trypsinized and washed twice in PBS. Cells were lysed in MPER lysis buffer (Pierce) containing 1× protease inhibitor cocktail (Roche). Cell lysates were subjected to three rounds of sonication on ice with a minimum of 15 s of sonication per round. Protein concentration of the lysates was quantified using a Bradford assay (Biorad). Twenty-five micrograms of total protein lysates were loaded and separated by SDS-PAGE on a 10% gel. Proteins were then transferred to a nitrocellulose membrane (GE Healthcare) and probed with antibodies directed against various proteins of interest. The levels of pAcGFP-tagged ABCC4 and ABCC4ΔC were determined using the polyclonal full-length GFP antibody (1:2000, Santa Cruz). The level of MPP1 was detected using the monoclonal p55/MPP1 antibody (1:2500) from Epitomics. Where specified, the levels of ABCC4 were detected by using the rat monoclonal M4I10 antibody (1:2000, Abcam). An anti-Actin antibody was used as a loading control (1:10,000). Secondary antibodies conjugated to HRP (1:2000, GE Healthcare) were used. For co-immunoprecipitation experiments, light chain-specific secondary antibodies (1:5000, Jackson Immunoresearch) was used to prevent cross-contamination with heavy chain antibodies. The Clarity chemiluminescence (BioRad) reagent was used to detect the proteins. […]

MO7e cells [3] = assay: 6MP cytotoxicity in MO7e cells and CRISPR knock-outs; format: cell-based, Human; conditions: MO7e vs. ABCC4 KO; Antimycin A 10 nM, in words
Experimental: HEK293 cells transfected with ABCC4 or ABCC4ΔC in the presence or absence of MPP1, MO7e, and Meg01 cells were treated with 10 concentrations of 6MP, ranging from 1 to 1000 µM, for 96 h. Cell viability analysis was determined using CellTiter Glo (Promega). Where applicable, cell penetrating peptides conjugated to the PDZ-binding motif of ABCC4 (labeled either ABCC4-PDZ or ABCC4ΔC) were added to the cells at 20 μM. Media was changed daily and new ABCC4-PDZ/ABCC4ΔC peptide and 6MP was added. IC50 values were calculated using GraphPad Prism.
CRISPR-Cas9 plasmids containing gRNAs against ABCC4 ([…]) and MPP1 ([…]) were purchased from Sigma Aldrich. MO7e cells were transiently transfected with constructs containing the gRNA, Cas9 Nickase, and a flurophore. Forty-eight hours after transfection, cells were sorted for fluorescent positive cells and single cells were sorted into individual wells of a 96-well plate. Single-sorted cells were allowed to expand and deletion of the gene of interest was verified by immunoblotting.
The Meg01, MO7e, and ABCC4 KO MO7e cell lines were plated at 1500 cells per well in a 96-well plate. Cells were treated with 10 concentrations of Antimycin A (Santa Cruz) ranging from 0.01 to 1000 μM. Cell viability was determined using CellTiter Glo (Promega). Meg01, MO7e, and ABCC4 KO MO7e cells in the presence or absence of 10 nM Antimycin A were treated with 10 concentrations of 6MP, ranging from 1 to 1000 µM, for 96 h. Cell viability analysis was determined using CellTiter Glo. IC50 values were calculated using GraphPad Prism.

**Q.** How did the “effect on ABCC4 plasma membrane localization” value [1] turn out when `CCCCCC[C@H]1C(=O)O[C@H](C)[C@H](NC(=O)c2cccc(NC=O)c2O)C(=O)O[C@@H](C)[C@@H]1OC(=O)CC(C)C` [Antimycin A] was run?
**A.** ABCC4 relocalized from the plasma membrane to the cytosol; also recorded: causes ABCC4 to relocalize from the plasma membrane

**Q.** And the “effect of Antimycin A on cytarabine sensitivity” value (MO7e cells [2]; MO7e vs. MO7e-ABCC4 knockout, Antimycin A 10 nM)?
**A.** specifically sensitized MO7e cells to Cytarabine, but not MO7e-ABCC4 knockout cells; also recorded: specifically sensitizes ABCC4 expressing MO7e cells, but not ABCC4 KO cells

**Q.** And the “effect of co-treatment on IC50 for cytarabine” value (MO7e cells [2]; peer review file)?
**A.** reduce the IC50 for cytarabine

**Q.** And the “effect on protein expression of MPP1” value (MPP1)?
**A.** unchanged; also recorded: does not reduce the protein expression of MPP1

**Q.** What about the “effect of Antimycin A on 6MP sensitivity” value (MO7e cells [3]) of the same compound?
**A.** shifted the 6MP dose–response curve to the left, but only for cells harboring ABCC4, not ABCC4 KO cells; also recorded: specifically sensitizes ABCC4 expressing MO7e cells, but not ABCC4 KO cells
